The source of these data is ChEMBL document CHEMBL5465560, “Selectivity Literature for EUbOPEN Chemogenomic Library” (2024).

In assay [1] the target is Fibroblast growth factor receptor 2 (Homo sapiens) (UniProt P21802). Description: Selectivity interaction (KinomeScan (DiscoverX)) EUB0000595a FGFR2. The settings on record: at 10 µM.
The target of assay [2] is Ribosomal protein S6 kinase beta-1 (Homo sapiens, UniProt P23443). Put plainly: Selectivity interaction (KinomeScan (DiscoverX)) EUB0000666a RPS6KB1. The conditions noted are these: at 10 µM.
Chain of Ribosomal protein S6 kinase beta-1 (P23443 whole entry, looked up): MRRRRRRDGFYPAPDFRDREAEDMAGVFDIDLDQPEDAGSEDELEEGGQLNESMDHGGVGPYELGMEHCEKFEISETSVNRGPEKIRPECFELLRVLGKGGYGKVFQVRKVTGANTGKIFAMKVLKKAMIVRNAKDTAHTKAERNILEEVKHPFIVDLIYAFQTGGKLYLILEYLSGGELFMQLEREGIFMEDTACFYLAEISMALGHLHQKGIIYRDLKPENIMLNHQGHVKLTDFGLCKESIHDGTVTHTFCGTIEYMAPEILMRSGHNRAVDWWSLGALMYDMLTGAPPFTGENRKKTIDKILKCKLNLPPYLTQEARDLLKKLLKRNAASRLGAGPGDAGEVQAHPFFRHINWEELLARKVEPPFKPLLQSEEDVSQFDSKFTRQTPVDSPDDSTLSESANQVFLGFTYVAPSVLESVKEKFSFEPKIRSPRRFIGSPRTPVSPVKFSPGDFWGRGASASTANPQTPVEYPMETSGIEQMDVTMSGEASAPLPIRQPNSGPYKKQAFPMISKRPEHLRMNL
Assay [3] addresses T1, Ephrin type-B receptor 3 (Homo sapiens) (UniProt P54753).
T1 sequence (whole entry): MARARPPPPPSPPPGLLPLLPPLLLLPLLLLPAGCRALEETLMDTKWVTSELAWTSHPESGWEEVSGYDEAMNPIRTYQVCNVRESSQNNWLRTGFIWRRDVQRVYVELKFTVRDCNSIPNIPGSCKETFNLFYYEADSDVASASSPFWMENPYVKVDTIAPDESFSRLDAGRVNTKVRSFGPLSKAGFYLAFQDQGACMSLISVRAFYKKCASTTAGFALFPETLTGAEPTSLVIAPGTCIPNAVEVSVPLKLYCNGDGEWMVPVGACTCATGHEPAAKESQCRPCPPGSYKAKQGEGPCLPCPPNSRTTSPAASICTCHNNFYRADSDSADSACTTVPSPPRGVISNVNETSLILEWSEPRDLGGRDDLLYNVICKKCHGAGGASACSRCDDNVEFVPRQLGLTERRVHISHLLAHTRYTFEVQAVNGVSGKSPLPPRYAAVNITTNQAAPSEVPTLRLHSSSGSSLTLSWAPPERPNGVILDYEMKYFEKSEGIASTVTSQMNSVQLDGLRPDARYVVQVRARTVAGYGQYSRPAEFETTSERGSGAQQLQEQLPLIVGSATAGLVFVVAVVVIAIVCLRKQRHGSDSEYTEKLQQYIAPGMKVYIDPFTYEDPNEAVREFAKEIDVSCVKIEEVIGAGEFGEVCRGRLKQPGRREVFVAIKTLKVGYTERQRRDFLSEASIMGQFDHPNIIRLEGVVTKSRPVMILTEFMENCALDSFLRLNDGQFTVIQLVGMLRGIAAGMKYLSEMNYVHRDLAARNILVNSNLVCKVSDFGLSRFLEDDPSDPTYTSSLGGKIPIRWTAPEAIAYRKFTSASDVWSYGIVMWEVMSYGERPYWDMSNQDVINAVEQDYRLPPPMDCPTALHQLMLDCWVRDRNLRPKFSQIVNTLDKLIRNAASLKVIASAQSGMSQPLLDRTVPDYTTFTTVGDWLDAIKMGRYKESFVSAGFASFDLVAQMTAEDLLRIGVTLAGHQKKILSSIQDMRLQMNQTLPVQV
Description: Selectivity interaction (ActivX KiNativ screen (kinase selectivity in THP-1 cell lysates)) EUB0000639a EPHB3. The class given is subcellular. The settings on record: lysate.

For assay [4], the target named is T2, Mitogen-activated protein kinase kinase kinase kinase 2 (Homo sapiens) (UniProt Q12851).
T2 sequence (whole entry): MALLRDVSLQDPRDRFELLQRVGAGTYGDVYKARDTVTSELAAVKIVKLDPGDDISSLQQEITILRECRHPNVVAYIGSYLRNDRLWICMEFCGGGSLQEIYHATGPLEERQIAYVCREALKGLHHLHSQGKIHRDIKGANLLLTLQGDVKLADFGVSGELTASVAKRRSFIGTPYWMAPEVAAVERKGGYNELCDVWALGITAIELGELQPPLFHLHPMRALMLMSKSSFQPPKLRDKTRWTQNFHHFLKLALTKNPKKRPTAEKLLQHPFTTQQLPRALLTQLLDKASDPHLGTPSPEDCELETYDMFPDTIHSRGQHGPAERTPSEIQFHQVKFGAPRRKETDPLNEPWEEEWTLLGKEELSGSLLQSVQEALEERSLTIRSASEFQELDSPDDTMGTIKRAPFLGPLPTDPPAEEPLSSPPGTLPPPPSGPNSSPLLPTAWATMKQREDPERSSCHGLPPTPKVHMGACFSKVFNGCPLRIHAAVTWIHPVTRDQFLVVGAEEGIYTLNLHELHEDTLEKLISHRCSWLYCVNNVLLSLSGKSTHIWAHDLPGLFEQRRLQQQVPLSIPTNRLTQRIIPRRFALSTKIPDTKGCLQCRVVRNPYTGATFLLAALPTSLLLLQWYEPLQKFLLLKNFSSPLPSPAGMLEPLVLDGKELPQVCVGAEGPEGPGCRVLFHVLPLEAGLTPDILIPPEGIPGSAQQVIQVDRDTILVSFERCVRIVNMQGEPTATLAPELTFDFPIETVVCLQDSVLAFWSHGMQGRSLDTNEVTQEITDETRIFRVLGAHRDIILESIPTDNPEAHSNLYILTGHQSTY
Description: Selectivity interaction (Kinase panel (literature)) EUB0001199aCl MAP4K2. The conditions noted are these: at 1 µM.

Assay [5] deals with Tyrosine-protein kinase ABL1 (Homo sapiens, UniProt P00519). Put plainly: Selectivity interaction (Ambit KINOMEscan and KiNATiv profiling in Jurkat cells) EUB0000090b ABL1. Format: cell-based. The conditions noted are these: at 1 µM.
Chain of Tyrosine-protein kinase ABL1 (P00519 whole entry): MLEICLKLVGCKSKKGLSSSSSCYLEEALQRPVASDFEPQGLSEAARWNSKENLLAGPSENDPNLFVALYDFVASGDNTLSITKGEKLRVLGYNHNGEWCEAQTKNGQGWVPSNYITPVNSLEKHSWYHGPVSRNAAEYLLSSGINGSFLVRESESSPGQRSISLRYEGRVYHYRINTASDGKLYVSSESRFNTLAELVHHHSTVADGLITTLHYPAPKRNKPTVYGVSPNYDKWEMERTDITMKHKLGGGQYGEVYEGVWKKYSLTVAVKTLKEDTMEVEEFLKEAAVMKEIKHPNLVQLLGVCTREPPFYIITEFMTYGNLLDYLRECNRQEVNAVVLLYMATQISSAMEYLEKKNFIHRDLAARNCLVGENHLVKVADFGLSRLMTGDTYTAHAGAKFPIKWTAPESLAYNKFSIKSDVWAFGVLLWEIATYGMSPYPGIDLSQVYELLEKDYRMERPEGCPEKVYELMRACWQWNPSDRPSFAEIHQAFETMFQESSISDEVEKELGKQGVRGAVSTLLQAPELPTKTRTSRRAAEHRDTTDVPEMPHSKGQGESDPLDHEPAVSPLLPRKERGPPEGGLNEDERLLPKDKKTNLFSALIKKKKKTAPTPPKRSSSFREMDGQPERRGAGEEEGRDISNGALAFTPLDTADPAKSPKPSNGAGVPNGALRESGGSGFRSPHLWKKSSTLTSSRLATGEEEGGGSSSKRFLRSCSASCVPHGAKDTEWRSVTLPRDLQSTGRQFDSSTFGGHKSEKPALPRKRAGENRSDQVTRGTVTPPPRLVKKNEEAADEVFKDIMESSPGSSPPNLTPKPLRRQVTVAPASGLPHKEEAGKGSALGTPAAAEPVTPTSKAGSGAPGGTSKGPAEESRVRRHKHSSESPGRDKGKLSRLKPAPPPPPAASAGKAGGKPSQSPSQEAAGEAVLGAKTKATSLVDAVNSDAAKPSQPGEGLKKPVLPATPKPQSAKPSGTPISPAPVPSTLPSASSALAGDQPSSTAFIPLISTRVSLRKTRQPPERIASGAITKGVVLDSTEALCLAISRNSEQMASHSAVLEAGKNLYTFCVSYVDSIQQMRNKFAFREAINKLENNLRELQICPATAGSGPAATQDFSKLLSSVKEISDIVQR
For assay [6], the target named is Ribosomal protein S6 kinase alpha-3 (Homo sapiens, UniProt P51812). Description: Selectivity interaction (Ambit KINOMEscan and KiNATiv profiling in Jurkat cells) EUB0000090b RPS6KA3. The conditions noted are these: at 1 µM. Format: cell-based.
Chain of Ribosomal protein S6 kinase alpha-3 (P51812 whole entry): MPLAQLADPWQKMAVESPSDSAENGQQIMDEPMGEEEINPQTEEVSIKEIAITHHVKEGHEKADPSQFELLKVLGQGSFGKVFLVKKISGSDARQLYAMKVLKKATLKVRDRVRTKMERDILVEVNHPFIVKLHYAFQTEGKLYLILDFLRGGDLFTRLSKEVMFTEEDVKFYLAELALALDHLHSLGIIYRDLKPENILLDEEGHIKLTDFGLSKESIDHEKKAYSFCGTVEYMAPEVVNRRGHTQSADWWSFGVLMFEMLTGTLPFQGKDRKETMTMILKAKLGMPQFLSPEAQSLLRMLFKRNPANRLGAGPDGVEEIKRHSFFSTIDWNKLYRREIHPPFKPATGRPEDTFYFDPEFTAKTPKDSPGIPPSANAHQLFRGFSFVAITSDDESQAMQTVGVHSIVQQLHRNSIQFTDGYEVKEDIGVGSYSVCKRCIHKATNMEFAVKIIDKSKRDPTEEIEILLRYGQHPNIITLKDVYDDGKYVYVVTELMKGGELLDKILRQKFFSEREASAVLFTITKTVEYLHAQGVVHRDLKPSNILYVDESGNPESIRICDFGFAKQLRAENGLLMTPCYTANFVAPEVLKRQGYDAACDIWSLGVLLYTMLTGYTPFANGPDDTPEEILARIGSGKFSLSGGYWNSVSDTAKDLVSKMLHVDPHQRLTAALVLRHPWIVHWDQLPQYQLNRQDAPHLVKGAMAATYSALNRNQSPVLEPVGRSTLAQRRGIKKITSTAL
The target in assay [7] is T3, Tyrosine-protein kinase Tec (Homo sapiens) (UniProt P42680).
T3 sequence (whole entry): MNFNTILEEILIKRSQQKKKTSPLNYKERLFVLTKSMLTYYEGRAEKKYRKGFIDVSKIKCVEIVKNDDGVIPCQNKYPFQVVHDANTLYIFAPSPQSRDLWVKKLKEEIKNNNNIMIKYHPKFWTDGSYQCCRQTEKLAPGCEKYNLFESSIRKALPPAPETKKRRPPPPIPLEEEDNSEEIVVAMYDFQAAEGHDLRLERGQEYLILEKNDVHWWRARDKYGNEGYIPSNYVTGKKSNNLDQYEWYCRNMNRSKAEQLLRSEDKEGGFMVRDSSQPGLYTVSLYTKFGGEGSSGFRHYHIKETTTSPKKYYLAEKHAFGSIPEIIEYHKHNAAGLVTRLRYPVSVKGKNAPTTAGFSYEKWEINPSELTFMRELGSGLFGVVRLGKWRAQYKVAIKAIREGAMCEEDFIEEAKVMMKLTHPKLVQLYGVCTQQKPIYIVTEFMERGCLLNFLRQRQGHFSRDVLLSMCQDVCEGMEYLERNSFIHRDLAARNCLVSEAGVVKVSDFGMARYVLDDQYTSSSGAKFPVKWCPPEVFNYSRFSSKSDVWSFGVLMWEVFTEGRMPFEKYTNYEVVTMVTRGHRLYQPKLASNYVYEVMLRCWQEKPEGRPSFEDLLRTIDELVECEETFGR
Put plainly: Selectivity interaction (KinomeScan (DiscoverX)) EUB0000655a TEC. The settings on record: at 10 µM.

The target in assay [8] is Bromodomain adjacent to zinc finger domain protein 2A (Homo sapiens, UniProt Q9UIF9). Description: Selectivity interaction (Bromodomain panel (DSF asssay)) EUB0000270b BAZ2A.
Assay [9] has as its target Ribosomal protein S6 kinase alpha-4 (Homo sapiens) (UniProt O75676). Description: Selectivity interaction (KinomeScan (DiscoverX)) EUB0001079a RPS6KA4. The conditions noted are these: at 1 µM.

The structures appear in SMILES notation.

Chain of Ribosomal protein S6 kinase alpha-4 (Homo sapiens) (O75676 whole entry, looked up): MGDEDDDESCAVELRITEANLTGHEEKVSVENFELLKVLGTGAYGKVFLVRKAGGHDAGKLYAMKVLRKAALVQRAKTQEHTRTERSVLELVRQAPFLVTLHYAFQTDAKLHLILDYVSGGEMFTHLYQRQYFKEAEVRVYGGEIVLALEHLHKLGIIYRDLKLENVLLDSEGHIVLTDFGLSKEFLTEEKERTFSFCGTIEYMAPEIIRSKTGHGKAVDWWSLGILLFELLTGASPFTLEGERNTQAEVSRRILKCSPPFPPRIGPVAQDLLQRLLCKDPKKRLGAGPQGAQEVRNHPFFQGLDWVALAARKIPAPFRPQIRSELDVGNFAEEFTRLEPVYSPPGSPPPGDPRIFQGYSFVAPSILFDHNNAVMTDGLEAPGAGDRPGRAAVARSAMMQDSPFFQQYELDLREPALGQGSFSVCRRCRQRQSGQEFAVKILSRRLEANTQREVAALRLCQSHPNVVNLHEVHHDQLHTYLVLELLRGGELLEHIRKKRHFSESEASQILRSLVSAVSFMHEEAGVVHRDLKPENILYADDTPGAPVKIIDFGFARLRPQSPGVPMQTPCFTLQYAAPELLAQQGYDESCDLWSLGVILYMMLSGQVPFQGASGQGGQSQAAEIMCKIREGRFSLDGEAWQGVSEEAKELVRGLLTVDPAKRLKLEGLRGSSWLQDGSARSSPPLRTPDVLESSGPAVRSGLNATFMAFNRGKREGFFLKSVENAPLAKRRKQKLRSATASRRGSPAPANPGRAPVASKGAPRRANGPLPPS
Chain of Fibroblast growth factor receptor 2 (Homo sapiens) (P21802 22-821 limits assumed): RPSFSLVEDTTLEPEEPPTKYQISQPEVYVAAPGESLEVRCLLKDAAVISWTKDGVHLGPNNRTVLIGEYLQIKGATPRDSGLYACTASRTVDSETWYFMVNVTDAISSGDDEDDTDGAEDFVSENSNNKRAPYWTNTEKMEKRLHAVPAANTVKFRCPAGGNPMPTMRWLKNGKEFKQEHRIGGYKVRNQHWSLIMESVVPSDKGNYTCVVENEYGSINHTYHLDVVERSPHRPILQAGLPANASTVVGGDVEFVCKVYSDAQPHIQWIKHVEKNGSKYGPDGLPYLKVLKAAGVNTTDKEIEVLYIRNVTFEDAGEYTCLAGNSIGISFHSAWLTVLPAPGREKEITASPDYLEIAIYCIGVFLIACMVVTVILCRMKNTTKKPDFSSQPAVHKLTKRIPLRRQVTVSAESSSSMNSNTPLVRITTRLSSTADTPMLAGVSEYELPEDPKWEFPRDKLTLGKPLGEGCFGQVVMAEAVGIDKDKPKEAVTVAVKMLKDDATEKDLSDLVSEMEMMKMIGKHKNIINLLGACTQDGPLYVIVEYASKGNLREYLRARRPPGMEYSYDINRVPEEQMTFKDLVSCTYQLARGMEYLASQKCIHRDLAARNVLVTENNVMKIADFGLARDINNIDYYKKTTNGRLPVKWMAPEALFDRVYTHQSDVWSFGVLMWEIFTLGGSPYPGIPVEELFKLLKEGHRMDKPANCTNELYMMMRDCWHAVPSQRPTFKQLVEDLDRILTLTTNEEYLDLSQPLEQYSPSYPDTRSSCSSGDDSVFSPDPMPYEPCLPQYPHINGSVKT

Turning to `COCC(=O)NC/C=C/c1ccc2ncnc(Nc3ccc(Oc4ccc(C)nc4)c(C)c3)c2c1` [CP-724714], the % of control in assay [1] turned out to be 100%. In assay [2], `O=C(NOC[C@H](O)CO)c1ccc(F)c(F)c1Nc1ccc(I)cc1F` returned a % of control of 100%. As to `CC[C@@H]1[C@H](F)C(=O)N[C@@H]1COc1nccc2cc(C(N)=O)c(OC)cc12` [ZIMLOVISERTIB], the % of inhibition in assay [3] (at 0.01 µM) is -3.9%; in [3] (at 0.04 µM), -40.1%; in [3] (at 0.2 µM), -48.3%; in [3] (at 1 µM) it was -34.8%; in [3] (at 5 µM), -22.6%. Take `CN1Cc2nccc(-c3cn(C)nc3-c3ccc(F)cc3)c2C1=O`: the % of inhibition in assay [4] is 4%. In the case of `CN(C)C/C=C/C(=O)Nc1ccc(C(=O)N2CCCC(Nc3ncc(Cl)c(-c4c[nH]c5ccccc45)n3)C2)cc1` (stereo not drawn), the % of control in [5] amounted to 97%; in assay [6], 5%.

`CN(C)CCOc1ccc(-c2nc(-c3ccncc3)c(-c3ccc4c(c3)CC/C4=N\O)[nH]2)cc1` showed a % of control in assay [7] of 91%. Regarding `Cc1cc(CN)cc(C)c1-c1ncn(C)c1-c1cncn1C`, the dTM in [8] is -1.5 K. For `Nc1cnc(N2CCc3cc(S(=O)(=O)Nc4c(F)cc(Cl)cc4F)cc(N4CCCC4=O)c32)nc1` [TP-020n], in [9], the % of control came to 100%.
